{"source": "patent US20090297492A1", "about": "“Method for Improving Cognitive Performance” (YAMAHA HATSUDOKI KABUSHIKI KAISHA, priority 2008, published 2009)", "key": {"[1]": {"tested_on": "healthy males aged 50 to 69", "assay": "CogHealth cognitive function test (task-switching) with administration of astaxanthin", "format": "in vivo, human", "conditions": "for Simple reaction, average reaction time: 10 subjects", "source_text": "CogHealth, mentioned above, is based on task-switching that is used for evaluating higher brain functions (executive functions), such as the suppression of an action or the reorganization of information processing (A. F. Kramer et al., Nature, Vol. 400, pp. 418-419 (1999), N. J. Cepeda et al, Developmental Psychology, Vol. 37, No. 5, pp. 715-730 (2001), and S. Hsieh and L. C. Liu, Brain Res. Cogn. Brain Res., Vol. 22, No. 2, pp. 165-175 (2005)). Furthermore, fMRI analysis of brain proves that frontal lobe activity and task-switching relate to each other, and thus CogHealth is accepted as a frontal lobe function test. […] In CogHealth measurement, analysis is performed by calculating an average RT (reaction time) for each task.\n“Simple reaction” refers to a task of pressing a button when a card is flipped from face-down to face-up. “Choice reaction” refers to a task of pressing a button based on the judgment of whether the card flipped from face-down to face-up is red or black. In other words, the simple reaction and the choice reaction are tasks relating to reaction time and suppression time in the function of the human frontal lobe. The simple reaction time is the time taken to perform one reaction to one sensory stimulus, and the choice reaction time is the time necessary to recognize a type of a given stimulus, and to make a reaction depending on the type in a predetermined manner.\n“Working memory” refers to a task of pressing a button based on the judgment of whether or not a flipped card is the same as the preceding card. “Delayed recall” refers to a task of pressing a button based on the judgment of whether or not a flipped card is the same as a card that was present in the delayed recall task. “Working memory” and “delayed recall” are tasks for measuring memory, such as immediate memory and episodic memory. Working memory is a concept that includes not only information storage for a short period but also cognitive information processing. Working memory is memory used for a very short period of time in units of seconds, but the delayed recall is memory used for a period of time slightly longer than that of the working memory.\n“Divided attention” refers to a task of pressing a button when at least one of five cards moving up and down is brought into contact with an upper or lower set line, and is a task for measuring spatially divided attention ability. In other words, such divided attention is an ability not to concentrate on one point but to allocate attention to the surroundings (spatially divided attention ability or spatially allocated attention ability). The meaning of divided attention is entirely different from attention scattering.\nThe astaxanthin-containing soft capsules (each capsule contains 3 mg of astaxanthin) were administered to the test subjects by ingestion of two capsules with water twice a day after eating breakfast and supper. The administration period was 12 weeks.\nIn this example, in order to evaluate cognitive function, measurement using CogHealth (based on task-switching) and P300 (one of the event-related potentials of an electroencephalogram) was performed at 6 weeks and 12 weeks after starting administration.\nThe average RT (reaction time) was calculated for each of the tasks “simple reaction”, “choice reaction”, “working memory”, “delayed recall”, and “divided attention”. For two memory tasks (“working memory” and “delayed recall”), analysis was performed by also calculating the average AR (correct answer ratio).\nFor each index, a multiple comparison (Dunnet) was performed to obtain the P value. Regarding the result of P300, a Student's t-test was used additionally as a comparison before and after ingestion."}, "[2]": {"tested_on": "healthy males aged 50 to 69", "assay": "P300 event-related potential of electroencephalogram, auditory oddball paradigm", "format": "in vivo, human", "source_text": "On the other hand, event-related potential, which is a type of electroencephalogram, is a method for measuring cognitive functions by measuring the activity of the cerebral nerves during cognitive work. In particular, the P300 (P3b) component of event-related potential has been used to estimate the mental work load (A. F. Kramer and T. Weber, Handbook of psychophysiology (2nd Edition), J. T. Cacioppo et al. (Eds.), New York, Cambridge University Press, (2000) pp. 794-814). In a state where two tasks are simultaneously executed, when one task is made difficult (or the priority of one task is increased), the execution performance of the other task is lowered. Based on a study using such a dual-task method, the P300 amplitude is considered to clearly reflect the cognitive functions in the perception-central nerve level that caused the amplitude (E. Donchin et al., Psychophysiology: Systems, processes, and applications, M. G. H. Coles et al. (Eds.), New York, Guilford Press, (1986) pp. 702-718). That is to say, the P300 amplitude reflects the degree of attention, the degree of concentration, and the degree of cognitive load, for a task of recognizing surroundings.\nIn a P300 test, for example, an auditory oddball paradigm can be employed. […] Then, a change in the obtained amplitude before and after ingestion is measured based on the Grand Average. […]\nIn the electroencephalogram, an auditory oddball paradigm was used in which two types of sounds consisting of a high-pitched sound having a frequency of 2 KHz and a low-pitched sound having a frequency of 1 KHz were emitted from a headphone, and the test subjects were instructed to press a button as quickly and accurately as possible at the moment when the test subjects heard the high-pitched sound. […] The evoked electroencephalograms were measured with the frontal polar (Fpz) electrode as ground, and two linked electrode attached to the left and right earlobes as reference. […]"}, "[3]": {"conditions": "After 6 weeks, two 3 mg capsules twice a day, oral, Mean ± SD"}, "[4]": {"conditions": "After 12 weeks, two 3 mg capsules twice a day, oral, Mean ± SD"}}}
{"molecule": "CC1=C(/C=C/C(C)=C/C=C/C(C)=C/C=C/C=C(C)/C=C/C=C(C)/C=C/C2=C(C)C(=O)[C@@H](O)CC2(C)C)C(C)(C)C[C@H](O)C1=O", "note": "[astaxanthin]", "values": [{"measurement": "Choice reaction, average reaction time", "setting": "[1]; [3]", "value": "480.63 ± 39.87", "unit": "ms"}, {"measurement": "Delayed recall (Correct answer rate: %)", "setting": "[1]; [3]", "value": "71.19 ± 5.98", "unit": "%"}, {"measurement": "Delayed recall, average reaction time", "setting": "[1]; [3]", "value": "975.40 ± 190.75", "unit": "ms"}, {"measurement": "Divided attention, average reaction time", "setting": "[1]; [3]", "value": "419.52 ± 59.32", "unit": "ms"}, {"measurement": "Working memory, average reaction time", "setting": "[1]; [3]", "value": "732.95 ± 174.83", "unit": "ms"}, {"measurement": "Simple reaction, average reaction time", "setting": "[1]; [3]", "value": "303.31 ± 33.80", "unit": "ms"}, {"measurement": "Choice reaction, average reaction time", "setting": "[1]; [4]", "value": "463.63 ± 26.49", "unit": "ms"}, {"measurement": "Delayed recall (Correct answer rate: %)", "setting": "[1]; [4]", "value": "70.71 ± 8.91", "unit": "%"}, {"measurement": "Delayed recall, average reaction time", "setting": "[1]; [4]", "value": "916.77 ± 151.04", "unit": "ms"}, {"measurement": "Divided attention, average reaction time", "setting": "[1]; [4]", "value": "412.07 ± 51.97", "unit": "ms"}, {"measurement": "Working memory (Correct answer rate: %)", "setting": "[1]; [4]", "value": "96.30 ± 3.94", "unit": "%"}, {"measurement": "Working memory, average reaction time", "setting": "[1]; [4]", "value": "654.83 ± 128.42", "unit": "ms"}, {"measurement": "Simple reaction, average reaction time", "setting": "[1]; [4]", "value": "281.76 ± 33.56", "unit": "ms"}, {"measurement": "Change in reaction time for divided attention", "setting": "[1]; before ingestion versus 6 weeks after ingestion, P=0.034", "value": "significant reduction"}, {"measurement": "Change in reaction time, all tasks", "setting": "[1]; before ingestion versus 12 weeks after ingestion, P=0.013 to 0.034", "value": "significantly reduced"}, {"measurement": "Effect on agility, judging ability and spatially allocated attention ability", "setting": "[1]; overall conclusion from CogHealth", "value": "an effect of improving agility"}, {"measurement": "Change in reaction time, all tasks of CogHealth", "setting": "[1]; versus before ingestion", "value": "a reduction in reaction time was confirmed"}, {"measurement": "Change in correct answer ratio, working memory", "setting": "[1]; versus before ingestion, P=0.045", "value": "significant increase"}, {"measurement": "Change in correct answer ratio, delayed recall", "setting": "[1]; versus before ingestion, P=0.991", "value": "no significant change"}, {"measurement": "P300 Amplitude", "setting": "[2]; After 12 weeks, at Fz, two 3 mg capsules twice a day, oral, Mean ± SD", "value": "−10.54 ± 3.39", "unit": "μV"}, {"measurement": "Change in P300 amplitude at Fz", "setting": "[2]; multiple comparisons, before/after comparison P=0.057", "value": "no significant change"}, {"measurement": "Effect on concentration on the recognition of surroundings", "setting": "[2]; overall conclusion from P300", "value": "an effect of improving concentration on the recognition of surroundings"}]}
